Where “and” joins values, the source holds several entries; their conditions need not be identical. Identical values can stand only once.
Legend:
[1] = Initial stability studies of infusion solution; assay type: physicochemical; details: 5% dextrose (average pH 5)
Source text: Brrtish Joumal of Cancer(1998) 78(10). 1329-1336 @ 1998 Cancer Research Campaign A phase I clinical and pharmacokinetic study of the new topoisomerase inhibitor G1147211 given as a 72-h continuous infusion L Paz-Aresl*, R Kunkal 2, D DeMarial-3, J Cassidy' 4, M Alden3, P Beranek2, S Kaye', D Littlefield2, D Reilly3, S Depee2, P Wissel2, C Twelves' and P O'Dwyer3 CRC Department of Medical Oncology. University of Glasgow. Westem Infirmary Hospital. Glasgow Gll 6NT. UK; 2Glaxo Wellcome Research. Five Moore Drive. Research Triangle Park. NC 27709. USA; 'Fox Chase Cancer Center. 7701 Burholme Avenue. Philadelphia, PA 19111. USA: 4Thomas Jefferson University. Kimmel Cancer Institute. Bluemle Life Sciences Building. 233 S. 10th Street. Suite 502. Philadelphia. PA 19107. […] This study was designed to determine the maximum tolerated dose of Gl147211 as a 72-h infusion and to describe its pharmacokinetics and pharmacodynamics on this schedule. In a single-arm, rising-dose study in patients with advanced cancer, eight cohorts of three or more patients received 72-h infusions of G1147211 at doses ranging from 0.25 to 2.5 mg m-2 day-'. […] Whole-blood G1147211 lactone, total blood and total concentrations were measured during and over the 12 h following the infusion. […] Extensive phase 11 evaluation of this compound and further phase I trials evaluating more prolonged infusions are ongoing. […]

refractory solid tumours = test: Anti-tumour activity in phase I patients; assay type: in vivo
Source text: (§1) Brrtish Joumal of Cancer(1998) 78(10). 1329-1336 @ 1998 Cancer Research Campaign A phase I clinical and pharmacokinetic study of the new topoisomerase inhibitor G1147211 given as a 72-h continuous infusion L Paz-Aresl*, R Kunkal 2, D DeMarial-3, J Cassidy' 4, M Alden3, P Beranek2, S Kaye', D Littlefield2, D Reilly3, S Depee2, P Wissel2, C Twelves' and P O'Dwyer3 CRC Department of Medical Oncology. University of Glasgow. Westem Infirmary Hospital. Glasgow Gll 6NT. UK; 2Glaxo Wellcome Research. Five Moore Drive. Research Triangle Park. NC 27709. USA; 'Fox Chase Cancer Center. 7701 Burholme Avenue. Philadelphia, PA 19111. USA: 4Thomas Jefferson University. Kimmel Cancer Institute. Bluemle Life Sciences Building. 233 S. 10th Street. Suite 502. Philadelphia. PA 19107. […] This study was designed to determine the maximum tolerated dose of Gl147211 as a 72-h infusion and to describe its pharmacokinetics and pharmacodynamics on this schedule. In a single-arm, rising-dose study in patients with advanced cancer, eight cohorts of three or more patients received 72-h infusions of G1147211 at doses ranging from 0.25 to 2.5 mg m-2 day-'. […] Whole-blood G1147211 lactone, total blood and total concentrations were measured during and over the 12 h following the infusion. […] Extensive phase 11 evaluation of this compound and further phase I trials evaluating more prolonged infusions are ongoing. Keywords: G1147211: GG211: camptothecin analogues: topoisomerase I inhibitor; phase I trial; pharmacokinetics: pharmacodynamics: continuous infusion GI 147211 (7-4 methyl piperazinomethilene)- 10.1 1 -ethylenedioxy - 20-(S camptothecin: Figure 1) is a totally synthetic analogue of camptothecin. a natural product isolated from Camptotheca acuminata (WAall et al. 1966: Emerson et al. 1995). […] The nuclear enzyvme DNA topoisomerase I. x hich relaxes DNA supercoils arising during, replication and gene tran- scription. has been identified as the specific targret of camptothecin (Hsianer and Liu. 1988: Wall and Wani. 1995).

melanoma cell line Lox = test system: melanoma cell line Lox; design: method as in Emerson et al. 1995; details: ref Emerson et al. 1995; cited from earlier work
[2] = Phase I pharmacokinetics, 72-h continuous infusion, whole-blood and urine HPLC
Source text: as §1

[3] = Phase I toxicity (Common Toxicity Criteria), 72-h continuous infusion; details: for MTD: 72-h infusion
Source text: as §1

[4] = heavy pretreatment, 1.2 mg m-2 day-1, n=3
[5] = heavy pretreatment, 1.5 mg m-2 day-1, n=4
[6] = heavy pretreatment, 2.0 mg m-2 day-1, n=1
[7] = minimal pretreatment, 1.5 mg m-2 day-1, n=5
[8] = minimal pretreatment, 1.75 mg m-2 day-1, n=3
[9] = minimal pretreatment, 2.0 mg m-2 day-1, n=10
[10] = minimal pretreatment, 2.5 mg m-2 day-1, n=2

## CC[C@@]1(O)C(=O)OCc2c1cc1n(c2=O)Cc2c-1nc1cc3c(cc1c2CN1CCN(C)CC1)OCCO3 [GI147211, 7-4 methyl piperazinomethilene)-10.1 1-ethylenedioxy - 20-(S camptothecin]
[1]
  Stability as a concentrate or as a more dilute solution: stable
Refractory solid tumours; 44 patients
  Number of minor responses: two
  Number of partial responses: Three
Refractory solid tumours; individual patients (breast, ovarian, colorectal cancer)
  Duration of partial response: 8 weeks and 30 weeks and ≥ 34 weeks
Refractory solid tumours; patient with colorectal cancer
  Decrease in hepatic lesions: 44%
Refractory solid tumours; patient with hepatoma
  Decrease in hepatic lesions: 36%
Melanoma cell line Lox
  50% growth inhibition concentration: 0.592 ng/mL
[2]; at doses of 1.2 mg m-2 day-1 and above
  Css: > 1 ng/mL
[2]; human, in vivo
  Clearance, average: 1074 ml min-1 m-2
  Mean clearance values, range over the dose range: 776-1554 ml min-1 m-2
  Mean terminal elimination half-life: 7.5 h
  Renal clearance, average: 164 ml min-
[2]; human, in vivo, 0.25 mg
  Clearance, mean: 776 ml min-1 m-2
[2]; human, in vivo, 0.5 mg
  Clearance, mean: 864 ml min-1 m-2
[2]; human, in vivo, 1 mg
  Clearance, mean: 826 ml min-1 m-2
  Half-life, mean: 7.9 h
[2]; human, in vivo, 1.2 mg
  Clearance, mean: 1279 ml min-1 m-2
  Half-life, mean: 6.1 h
[2]; human, in vivo, 1.5 mg
  Clearance, mean: 1046 ml min-1 m-2
  Half-life, mean: 7.4 h
[2]; human, in vivo, 2 mg
  Clearance, mean: 1290 ml min-1 m-2
  Half-life, mean: 7.2 h
[2]; human, in vivo, 2.5 mg
  Clearance, mean: 1554 ml min-1 m-2
  Half-life, mean: 8.5 h
[2]; in vivo
  Total drug recovered unaltered in urine: ~11%
  Variation in Css with dose level: two- to threefold
[2]; lactone, 1.75 mg m-2 day-1, n=3
  Clearance, mean: 1138 ml min-1 m-2
[2]; lactone, whole blood, 0.25 mg m-2 day-1, n=6
  Css, mean: 0.25 ng/mL
[2]; lactone, whole blood, 1.0 mg m-2 day-1, n=5
  Css, mean: 0.86 ng/mL
[2]; lactone, whole blood, 1.2 mg m-2 day-1, n=3
  Css, mean: 0.74 ng/mL
[2]; lactone, whole blood, 1.5 mg m-2 day-1, n=10
  Css, mean: 1.09 ng/mL
[2]; lactone, whole blood, 1.75 mg m-2 day-1, n=3
  Css, mean: 1.10 ng/mL
[2]; lactone, whole blood, 2.0 mg m-2 day-1, n=11
  Css, mean: 1.09 ng/mL
[2]; lactone, whole blood, 2.5 mg m-2 day-1, n=2
  Css, mean: 1.21 ng/mL
[2]; total drug in urine, 15 subjects
  Mean fraction of drug excreted unchanged in the urine (fe): 0.114
[2]; whole blood
  Total blood concentrations (lactone plus carboxylate) relative to lactone concentrations: approximately four
[3]; 0.25 mg m-2 day-1, n=6
  Anaemia, patients with worst CTC grade 1: 2 patients
  Thrombocytopenia, patients with worst CTC grade 1: 1 patients
[3]; 0.50 mg m-2 day-1, n=4
  Anaemia, patients with worst CTC grade 1: 1 patients
  Leucopenia, patients with worst CTC grade 1: 1 patients
[3]; 1.0 mg m-2 day-1, n=5
  Anaemia, patients with worst CTC grade 3: 1 patients
  Leucopenia, patients with worst CTC grade 2: 1 patients
  Leucopenia, patients with worst CTC grade 3: 1 patients
  Neutropenia, patients with worst CTC grade 1: 1 patients
  Thrombocytopenia, patients with worst CTC grade 1: 1 patients
  Thrombocytopenia, patients with worst CTC grade 4: 1 patients
[3]; 39 patients treated through central venous catheters
  Patients with central venous catheter associated infections requiring i.v. antibiotics: Five
[3]; all doses
  Patients complaining of headache while receiving the infusion: Twenty
[3]; all doses, 44 patients
  Patients with alopecia: 14 patients
  Patients with grade I or II nausea: Twenty-six
  Patients with grade I or II vomiting: 16 patients
  Patients with grade III vomiting: Three
  Patients with mild diarrhoea: seven
[3]; doses > 1.2 mg m-2 day-1
  Patients with grade II or III anaemia: 15 of 29
[3]; five patients infused through peripheral veins, doses < 1.0 mg m-2 day-1
  Phlebitis at the site of venepuncture: All of these patients developed phlebitis
[3]; heavily pretreated patients
  Recommended phase II dose: 1.2 mg m-2 day-1
  MTD: 1.2 mg m-2 day-1
[3]; heavily pretreated, 1.2 mg m-2 day-1, range 15-22
  Time of platelet nadir after the beginning of the infusion: 18 days
[3]; heavily pretreated, 1.2 mg m-2 day-1, range 31-93
  Platelet nadir, median count: 7.5e+10 L⁻¹
[3]; [4]
  Anaemia, patients with worst CTC grade 1: 1 patients
  Anaemia, patients with worst CTC grade 2: 2 patients
  Leucopenia, patients with worst CTC grade 1: 1 patients
  Leucopenia, patients with worst CTC grade 2: 1 patients
  Neutropenia, patients with worst CTC grade 1: 1 patients
  Thrombocytopenia, patients with worst CTC grade 1: 2 patients
  Thrombocytopenia, patients with worst CTC grade 3: 1 patients
[3]; [5]
  Anaemia, patients with worst CTC grade 1: 1 patients
  Anaemia, patients with worst CTC grade 2: 2 patients
  Leucopenia, patients with worst CTC grade 3: 2 patients
  Leucopenia, patients with worst CTC grade 4: 1 patients
  Neutropenia, patients with worst CTC grade 4: 3 patients
  Thrombocytopenia, patients with worst CTC grade 4: 3 patients
[3]; [6]
  Anaemia, patients with worst CTC grade 3: 1 patients
  Leucopenia, patients with worst CTC grade 4: 1 patients
  Neutropenia, patients with worst CTC grade 4: 1 patients
  Thrombocytopenia, patients with worst CTC grade 4: 1 patients
[3]; in contrast to irinotecan
  Induction of diarrhoea: does not induce diarrhoea
[3]; in vivo, iv
  Patients with grade IV neutropenia who developed fever: Five of the ten
[3]; [7]
  Anaemia, patients with worst CTC grade 2: 2 patients
  Anaemia, patients with worst CTC grade 3: 2 patients
  Leucopenia, patients with worst CTC grade 2: 2 patients
  Leucopenia, patients with worst CTC grade 4: 1 patients
  Neutropenia, patients with worst CTC grade 3: 2 patients
  Neutropenia, patients with worst CTC grade 4: 1 patients
  Thrombocytopenia, patients with worst CTC grade 1: 1 patients
  Thrombocytopenia, patients with worst CTC grade 2: 1 patients
  Thrombocytopenia, patients with worst CTC grade 3: 1 patients
  Thrombocytopenia, patients with worst CTC grade 4: 1 patients
[3]; [8]
  Anaemia, patients with worst CTC grade 1: 1 patients
  Anaemia, patients with worst CTC grade 3: 1 patients
  Leucopenia, patients with worst CTC grade 3: 1 patients
  Neutropenia, patients with worst CTC grade 3: 1 patients
[3]; [9]
  Anaemia, patients with worst CTC grade 1: 4 patients
  Anaemia, patients with worst CTC grade 2: 4 patients
  Anaemia, patients with worst CTC grade 3: 1 patients
  Leucopenia, patients with worst CTC grade 1: 4 patients
  Leucopenia, patients with worst CTC grade 2: 1 patients
  Leucopenia, patients with worst CTC grade 3: 1 patients
  Leucopenia, patients with worst CTC grade 4: 2 patients
  Neutropenia, patients with worst CTC grade 1: 2 patients
  Neutropenia, patients with worst CTC grade 2: 2 patients
  Neutropenia, patients with worst CTC grade 4: 3 patients
  Thrombocytopenia, patients with worst CTC grade 1: 2 patients
  Thrombocytopenia, patients with worst CTC grade 2: 1 patients
  Thrombocytopenia, patients with worst CTC grade 3: 4 patients
[3]; [10]
  Anaemia, patients with worst CTC grade 3: 1 patients
  Leucopenia, patients with worst CTC grade 3: 1 patients
  Leucopenia, patients with worst CTC grade 4: 1 patients
  Neutropenia, patients with worst CTC grade 4: 2 patients
  Thrombocytopenia, patients with worst CTC grade 3: 1 patients
  Thrombocytopenia, patients with worst CTC grade 4: 1 patients
[3]; minimally pretreated patients
  Dose at which neutropenia was dose limiting: 2.0 mg m-2 day-1
  MTD: 2.0 mg m-2 day-1
[3]; minimally pretreated, 2.0 mg m-2 day-1, range 0.02-3.92
  Nadir neutrophil count, median value: 1.59e+09 L⁻¹
[3]; minimally pretreated, 2.0 mg m-2 day-1, range 7-219
  Platelet nadir, median value: 7.2e+10 L⁻¹
[3]; minimally pretreated, 2.0 mg m-2 day-1, range 8-20
  Day of platelet nadir: 15 days
[3]; minimally pretreated, 2.0 mg m-2 day-1, range 10-22
  Time of lowest nadir neutrophil count, median: 16.5 days
[3]; more heavily pretreated patients
  Dose at which neutropenia and thrombocytopenia were limiting: 1.5 mg m-2 day-1
[3]; peripheral vein infusions
  Time to recovery of phlebitis: 7 to 24 days
[3]; range 1-14
  Median duration of grade IV neutropenia episodes: 5 days
[3]; range 1-10 days
  Median duration of grade III or IV thrombocytopenia: 4 days
[3]; untreated/minimally pretreated patients
  Recommended phase II dose: 1.75 mg m-2 day-1

Reference: paper PMC2063170, “A phase I clinical and pharmacokinetic study of the new topoisomerase inhibitor GI147211 given as a 72-h continuous infusion” (British Journal of Cancer, 1998)
